From patent US20250353891A1 (MEDIMMUNE LIMITED, priority 2022, published 2025)
Where two headings read alike, the source gives them in different places. Starred links: 1 amine or outer side, 2 acyl side, 3 side chain; linkers in the order of their positions; H or OH if unused. Non-standard residues stand in square brackets, D forms with d. Residues, ends and D or L forms follow the SMILES beside them. Groups on a side chain read outwards from the residue. *: point of attachment. C18 diacid = O=C(O)CCCCCCCCCCCCCCCCC(=O)*; Dip = N[C@H](C(=O)O)C(c1ccccc1)c1ccccc1; γGlu = O=C(O)[C@H](CCC(=O)[*:2])N[*:1]; Stearoyl = CCCCCCCCCCCCCCCCCC(=O)*; Palmitoyl = CCCCCCCCCCCCCCCC(=O)*; αMeF = C[C@](N)(Cc1ccccc1)C(=O)O; PEG4 = NCCOCCOCCOCCOCCC(=O)O; Nle = CCCC[C@H](N)C(=O)O; PEG2 = NCCOCCOCCC(=O)O; AEEA = NCCOCCOCC(=O)O; Aib = CC(C)(N)C(=O)O

Tests used:
[1] = target: human glucagon receptor (hGCGR) (Homo sapiens, UniProt P47871); assay: cAMP production (HTRF) in CHO cells expressing hGCGR; format: cell-based; design: expressed in transfected cells; details: cAMP in CHO hGCGR cells, geometric mean, read-out: hGluc-R EC50
Chain of human glucagon receptor (hGCGR) (P47871 26-477): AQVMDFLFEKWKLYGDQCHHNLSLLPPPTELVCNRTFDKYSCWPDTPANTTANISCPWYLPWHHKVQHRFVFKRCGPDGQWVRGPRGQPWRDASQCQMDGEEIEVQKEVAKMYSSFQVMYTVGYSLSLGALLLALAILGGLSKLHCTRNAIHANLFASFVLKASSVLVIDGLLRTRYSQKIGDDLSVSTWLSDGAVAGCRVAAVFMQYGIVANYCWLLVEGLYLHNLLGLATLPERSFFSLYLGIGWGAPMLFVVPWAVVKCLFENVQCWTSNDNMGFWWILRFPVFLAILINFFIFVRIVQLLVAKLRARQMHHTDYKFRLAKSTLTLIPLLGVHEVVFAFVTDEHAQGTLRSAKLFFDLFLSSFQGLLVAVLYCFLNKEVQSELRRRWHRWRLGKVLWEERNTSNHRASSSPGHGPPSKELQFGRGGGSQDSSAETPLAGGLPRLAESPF
Procedure, shortened: (§1)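 Read-out: HTRF cAMP (anti-cAMP cryptate donor, cAMP-d2 acceptor in conjugate/lysis buffer), converted to % Delta F and fitted by 4-parameter logistic for EC50. Cell densities were 1×10^5 cells/mL (hGLP-1R) or 2×10^5 cells/mL (hGCGR). Stimulation lasted 30 min at room temperature.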

[2] = Mouse acute food intake study; format: in vivo; details: male C57Bl/6 mice, s.c., dose 10 nmol/kg, cumulative food intake at 24 hr vs vehicle
Description: Male C57Bl/6 mice obtained from Jackson Laboratories or Charles River at 8-9 weeks of age and were housed one per cage in BioDaq (Research Diets) cages. Mice were placed on Alpha Dri bedding, standard chow diet (Envigo, 2018) and given water pouches. Mice were allowed to acclimate for 1-2 weeks. Body weight was measured to ensure appropriate acclimation. After acclimation, mice were sham dosed a minimum of 2 times prior to initiation of food intake study. On study day, mice were placed in clean cage bottoms, weighed, and fasted for 6-8 hours. Mice were sorted into groups based on average 24-hour food intake data and body weight. 1-2 hours prior to lights out, mice were dosed subcutaneously with one vehicle or test peptide dissolved in an appropriate vehicle at 5 mL/kg. Mice were left undisturbed and allowed access to food and water for 48 hours. Automated food intake was monitored in the BioDaq system was monitored during this time. Discrete food intake data was exported into MS Excel from which cumulative food intake data was generated and analyzed.

[3] = target: human GLP-1 receptor (hGLP-1R) (Homo sapiens, UniProt P43220); assay: cAMP production (HTRF) in CHO cells expressing hGLP-1R; format: cell-based; design: expressed in transfected cells; details: for EC50: cAMP in CHO hGLP-1R cells, geometric mean, read-out: hGLP-1R EC50; for % Relative Potency Ratio: % GLP-1R activity relative to GLP-1 / % GlucR activity relative to glucagon
Chain of human GLP-1 receptor (hGLP-1R) (P43220 24-463): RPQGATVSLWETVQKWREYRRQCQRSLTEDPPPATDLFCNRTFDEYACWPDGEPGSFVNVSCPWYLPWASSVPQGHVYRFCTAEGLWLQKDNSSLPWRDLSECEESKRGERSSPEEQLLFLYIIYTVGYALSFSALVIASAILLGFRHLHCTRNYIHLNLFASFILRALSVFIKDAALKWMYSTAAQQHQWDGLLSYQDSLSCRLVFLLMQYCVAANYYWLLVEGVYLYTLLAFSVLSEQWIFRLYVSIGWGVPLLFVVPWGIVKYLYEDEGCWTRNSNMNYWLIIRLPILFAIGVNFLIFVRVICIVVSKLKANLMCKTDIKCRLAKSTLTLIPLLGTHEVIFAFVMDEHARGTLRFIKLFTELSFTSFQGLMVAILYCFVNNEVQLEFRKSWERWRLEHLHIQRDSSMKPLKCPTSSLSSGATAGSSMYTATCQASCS
Procedure, shortened: as §1

[4] = Table 6, peptides modified at position 17
[5] = Table 7, peptides modified at position 20

| Compound | EC50 [1, 4] | EC50 [3, 4] | % Relative Potency Ratio ([3]; Table 6) | EC50 [1, 5] | EC50 [3, 5] | % Relative Potency Ratio ([3]; Table 7) | 24 hr % Vehicle Food Intake [2] |
| --- | --- | --- | --- | --- | --- | --- | --- |
| CCCCCCCCCCCCCCCCCC(=O)N[C@@H](CCC(=O)N[C@@H](CCC(=O)NCCOCCOCCC(=O)NCCOCCOCCC(=O)NCCCC[C@H](NC(=O)[C@H](CO)NC(=O)[C@H](CC(=O)O)NC(=O)[C@H](CC(C)C)NC(=O)[C@@H](NC(=O)[C@H](CCCCN)NC(=O)[C@H](CO)NC(=O)[C@@H](NC(=O)[C@H](CC(=O)O)NC(=O)[C@H](CO)NC(=O)[C@@H](NC(=O)[C@](C)(Cc1ccccc1)NC(=O)[C@H](CO)NC(=O)CNC(=O)[C@H](CCC(N)=O)NC(=O)C(C)(C)NC(=O)[C@@H](N)Cc1c[nH]cn1)[C@@H](C)O)C(C)C)C(c1ccccc1)c1ccccc1)C(=O)N[C@@H](C)C(=O)N[C@@H](C)C(=O)N[C@@H](CCC(N)=O)C(=O)N[C@@H](CC(=O)O)C(=O)N[C@@](C)(Cc1ccccc1)C(=O)N[C@H](C(=O)N[C@@H](CCC(=O)O)C(=O)NC(C)(C)C(=O)N[C@@H](CC(C)C)C(=O)N[C@@H](C)C(=O)N[C@@H](CC(N)=O)C(=O)N[C@H](C(N)=O)[C@@H](C)O)C(C)C)C(=O)O)C(=O)O [Peptide 45] (H-H[Aib]QGS[αMeF]TSDVSK[Dip]LDSK([PEG2-PEG2-γGlu-γGlu-Stearoyl])AAQD[αMeF]VE[Aib]LANT-NH2; N-terminus assumed) | 0.0149 nM | 0.00203 nM | 14.6 | – | – | – | 76.2% |
| CCCCCCCCCCCCCCCCCC(=O)N[C@@H](CCC(=O)N[C@@H](CCC(=O)NCCOCCOCCC(=O)NCCOCCOCCC(=O)NCCCC[C@H](NC(=O)[C@H](CO)NC(=O)[C@H](CC(=O)O)NC(=O)[C@H](CC(C)C)NC(=O)[C@@H](NC(=O)[C@H](CCCCN)NC(=O)[C@H](CO)NC(=O)[C@@H](NC(=O)[C@H](CC(=O)O)NC(=O)[C@H](CO)NC(=O)[C@@H](NC(=O)[C@](C)(Cc1ccccc1)NC(=O)[C@H](CO)NC(=O)CNC(=O)[C@H](CCC(N)=O)NC(=O)[C@H](CO)NC(=O)[C@@H](N)Cc1c[nH]cn1)[C@@H](C)O)C(C)C)C(c1ccccc1)c1ccccc1)C(=O)N[C@@H](C)C(=O)N[C@@H](C)C(=O)N[C@@H](CCC(N)=O)C(=O)N[C@@H](CC(=O)O)C(=O)N[C@@](C)(Cc1ccccc1)C(=O)N[C@H](C(=O)N[C@@H](CCC(=O)O)C(=O)NC(C)(C)C(=O)N[C@@H](CC(C)C)C(=O)N[C@@H](CCC(=O)O)C(=O)N[C@@H](C)C(=O)NCC(=O)NCC(N)=O)C(C)C)C(=O)O)C(=O)O [Peptide 46] (H-HSQGS[αMeF]TSDVSK[Dip]LDSK([PEG2-PEG2-γGlu-γGlu-Stearoyl])AAQD[αMeF]VE[Aib]LEAGG-NH2; N-terminus assumed) | 0.00591 nM | 0.00339 nM | 3.4 | – | – | – | 72.1% |
| CCCCCCCCCCCCCCCC(=O)N[C@@H](CCC(=O)NCCOCCOCCOCCOCCC(=O)NCCCC[C@H](NC(=O)[C@@H](NC(=O)[C@H](CC(=O)O)NC(=O)[C@H](CC(C)C)NC(=O)[C@](C)(Cc1ccccc1)NC(=O)[C@H](CCCCN)NC(=O)[C@H](CO)NC(=O)[C@@H](NC(=O)[C@H](CC(=O)O)NC(=O)[C@H](CO)NC(=O)[C@@H](NC(=O)[C@H](Cc1ccccc1)NC(=O)[C@@H](NC(=O)CNC(=O)[C@H](CCC(N)=O)NC(=O)C(C)(C)NC(=O)[C@@H](N)Cc1c[nH]cn1)[C@@H](C)O)[C@@H](C)O)C(C)C)C(C)C)C(=O)N[C@@H](CCCNC(=N)N)C(=O)N[C@@H](C)C(=O)N[C@@H](CCC(N)=O)C(=O)N[C@@H](CC(=O)O)C(=O)N[C@@](C)(Cc1ccccc1)C(=O)N[C@H](C(=O)N[C@@H](CCC(=O)O)C(=O)NC(C)(C)C(=O)N[C@@H](CC(C)C)C(=O)N[C@@H](CCCC)C(=O)N[C@@H](CCC(=O)O)C(=O)N[C@H](C(N)=O)[C@@H](C)O)C(C)C)C(=O)O [Peptide 68] (H-H[Aib]QGTFTSDVSK[αMeF]LDVK([PEG4-γGlu-Palmitoyl])RAQD[αMeF]VE[Aib]L[Nle]ET-NH2; N-terminus assumed) | 0.00467 nM | 0.0011 nM | 8.4 | – | – | – | 74.2% |

Continued, in another order:

| EC50 [1, 4] | EC50 [3, 4] | % Relative Potency Ratio ([3]; Table 6) | EC50 [1, 5] | EC50 [3, 5] | % Relative Potency Ratio ([3]; Table 7) | Compound | 24 hr % Vehicle Food Intake [2] |
| --- | --- | --- | --- | --- | --- | --- | --- |
| – | – | – | > 24.7 nM | 0.615 nM | – | CC(C)C[C@H](NC(=O)[C@H](Cc1c[nH]c2ccccc12)NC(=O)[C@H](C)NC(=O)[C@@H](NC(=O)[C@H](Cc1ccccc1)NC(=O)[C@H](CC(=O)O)NC(=O)[C@H](CCCCNC(=O)COCCOCCNC(=O)COCCOCCNC(=O)CC[C@H](NC(=O)CCCCCCCCCCCCCCCCCCC(=O)O)C(=O)O)NC(=O)[C@H](C)NC(=O)[C@H](CCCNC(=N)N)NC(=O)[C@H](CCC(=O)O)NC(=O)[C@H](CO)NC(=O)[C@H](CC(=O)O)NC(=O)[C@H](CC(C)C)NC(=O)[C@](C)(Cc1ccccc1)NC(=O)[C@H](CCCCN)NC(=O)[C@H](CO)NC(=O)[C@@H](NC(=O)[C@H](CC(=O)O)NC(=O)[C@H](CO)NC(=O)[C@@H](NC(=O)[C@H](Cc1ccccc1)NC(=O)[C@@H](NC(=O)CNC(=O)[C@H](CCC(N)=O)NC(=O)C(C)(C)NC(=O)[C@@H](N)Cc1c[nH]cn1)[C@@H](C)O)[C@@H](C)O)C(C)C)C(C)C)C(=O)N[C@@H](CCC(=O)O)C(=O)N[C@@H](C)C(=O)NCC(=O)NCC(=O)O [Peptide 523] | – |
| – | – | – | > 24.4 nM | 0.366 nM | – | CC(C)C[C@H](NC(=O)[C@H](Cc1c[nH]c2ccccc12)NC(=O)[C@H](CCCNC(=N)N)NC(=O)[C@@H](NC(=O)[C@H](Cc1ccccc1)NC(=O)[C@H](CC(=O)O)NC(=O)[C@H](CCCCNC(=O)COCCOCCNC(=O)COCCOCCNC(=O)CC[C@H](NC(=O)CCCCCCCCCCCCCCCCC(=O)O)C(=O)O)NC(=O)[C@H](C)NC(=O)[C@H](CCCNC(=N)N)NC(=O)[C@H](CCC(=O)O)NC(=O)[C@H](CO)NC(=O)[C@H](CC(=O)O)NC(=O)[C@H](CC(C)C)NC(=O)[C@](C)(Cc1ccccc1)NC(=O)[C@H](CCC(=O)O)NC(=O)[C@H](CO)NC(=O)[C@@H](NC(=O)[C@H](CC(=O)O)NC(=O)[C@H](CO)NC(=O)[C@@H](NC(=O)[C@H](Cc1ccccc1)NC(=O)[C@@H](NC(=O)CNC(=O)[C@H](CCC(N)=O)NC(=O)C(C)(C)NC(=O)[C@@H](N)Cc1c[nH]cn1)[C@@H](C)O)[C@@H](C)O)C(C)C)C(C)C)C(=O)N[C@@H](CCC(=O)O)C(=O)N[C@@H](C)C(=O)NCC(=O)NCC(=O)O [Peptide 524] (H-H[Aib]QGTFTSDVSE[αMeF]LDSERAK([AEEA-AEEA-γGlu-C18 diacid])DFVRWLEAGG-OH) | – |
| – | – | – | 2.45 nM | 0.177 nM | 27.4 | CC(C)C[C@H](NC(=O)[C@H](Cc1c[nH]c2ccccc12)NC(=O)[C@H](CCC(N)=O)NC(=O)[C@@H](NC(=O)[C@H](Cc1ccccc1)NC(=O)[C@H](CC(=O)O)NC(=O)[C@H](CCCCNC(=O)COCCOCCNC(=O)COCCOCCNC(=O)CC[C@H](NC(=O)CCCCCCCCCCCCCCCCC(=O)O)C(=O)O)NC(=O)[C@H](C)NC(=O)[C@H](CCCNC(=N)N)NC(=O)[C@H](CCC(=O)O)NC(=O)[C@H](CO)NC(=O)[C@H](CC(=O)O)NC(=O)[C@H](CC(C)C)NC(=O)[C@](C)(Cc1ccccc1)NC(=O)[C@H](CCCCN)NC(=O)[C@H](CO)NC(=O)[C@@H](NC(=O)[C@H](CC(=O)O)NC(=O)[C@H](CO)NC(=O)[C@@H](NC(=O)[C@H](Cc1ccccc1)NC(=O)[C@@H](NC(=O)CNC(=O)[C@H](CCC(N)=O)NC(=O)C(C)(C)NC(=O)[C@@H](N)Cc1c[nH]cn1)[C@@H](C)O)[C@@H](C)O)C(C)C)C(C)C)C(=O)N[C@@H](CCC(=O)O)C(=O)N[C@@H](C)C(=O)NC(C)(C)C(=O)NCC(=O)O [Peptide 525] | – |
| – | – | – | 0.69 nM | 0.194 nM | 7.0 | CC(C)C[C@H](NC(=O)[C@H](Cc1c[nH]c2ccccc12)NC(=O)[C@H](C)NC(=O)[C@@H](NC(=O)[C@H](Cc1ccccc1)NC(=O)[C@H](CC(=O)O)NC(=O)[C@H](CCCCNC(=O)COCCOCCNC(=O)COCCOCCNC(=O)CC[C@H](NC(=O)CCCCCCCCCCCCCCCCC(=O)O)C(=O)O)NC(=O)[C@H](C)NC(=O)[C@H](CCCNC(=N)N)NC(=O)[C@H](CCC(=O)O)NC(=O)[C@H](CO)NC(=O)[C@H](CC(=O)O)NC(=O)[C@H](CC(C)C)NC(=O)[C@](C)(Cc1ccccc1)NC(=O)[C@H](CCCCN)NC(=O)[C@H](CO)NC(=O)[C@@H](NC(=O)[C@H](CC(=O)O)NC(=O)[C@H](CO)NC(=O)[C@@H](NC(=O)[C@H](Cc1ccccc1)NC(=O)[C@@H](NC(=O)CNC(=O)[C@H](CCC(N)=O)NC(=O)C(C)(C)NC(=O)[C@@H](N)Cc1c[nH]cn1)[C@@H](C)O)[C@@H](C)O)C(C)C)C(C)C)C(=O)N[C@@H](CCC(=O)O)C(=O)N[C@@H](C)C(=O)NC(C)(C)C(=O)NCC(=O)O [Peptide 526] | – |
